Experimental data reported in US7884097B2, “Methods and compositions comprising diamines as new anti-tubercular therapeutics” (Sequella, Inc., priority 2003, dated 2011).
In brackets after ≈: the same amount, converted by molar mass. Entries after “also recorded” stand apart in the source; their conditions may differ. Read-outs that look alike come from different tables or passages of the source.

Experiments:
M. tuberculosis H37Rv [1] = test: Rapid (3 wk) murine model of TB, body weight loss; type: in vivo, mice; conditions: for prevention of body weight loss and mortality: mice iv 10^6 CFU, test drugs 10 mg/kg daily by gavage for 10 days, INH 25 or 2.5 mg/kg; for loss of initial body weight: by day 21 following challenge, 10 mg/kg
H37Rv strain of Mtb = test: microbe, parasite or virus in culture; type: cell-based, M. tuberculosis
Vero monkey kidney cells = test: In vitro toxicity, MTS assay in Vero cells; type: cell-based; conditions: for SI (selectivity index, ratio of IC50:MIC): IC50 Vero cells : MIC
Method: Cytotoxicity The Vero cell line (ATCC CCL-8 1) was seeded overnight at 5×10^4 cells per well in 96-well plates at 37° C. and 5% CO2 in EMEM with essential amino acids and glutamine (BioFluids) supplemented with 10% heat-inactivated fetal bovine serum (FBS). Cells were exposed to dilutions of experimental and control drugs in triplicate for 72 hr, with each compound at a range of concentrations from 15-200 μM. Chlorpromazine (Sigma) was run as a control at the same concentrations. CellTiter 96 AQueous Assay (Promega) was used for determination of Vero cell viability. Briefly, a solution of MTS salt (3-(4,5-dimethylthiazol-2-yl)-5-(3-carboxymethoxyphenyl)-2-(4-sulfophenyl)-2H-tetrazolium) and phenazine methosulfate was added to each well and plates were incubated for 2 hr at 37° C. and 5% CO2. Absorbance of each well was read using BioRad microplate reader at 490 nm. Viability (absorbance) of cells in drug-exposed wells was compared to those in drug-free control wells, and a curve relating cell viability to drug concentration was created.

HepG2 cell line = test: In vitro cytotoxicity, MTS assay in HepG2 cell line; type: cell-based; conditions: Homo sapiens, HepG2 cells
M. tuberculosis H37Rv [2] = test: Murine model of chronic TB, CFU in lung and spleen; type: in vivo, mice; conditions: for activity against M. tuberculosis in vivo: mice, two models (rapid and chronic)
[3] = system: recombinant mycobacteria containing a promoter fusion of luciferase to Rv0341; type: cell-based, M. tuberculosis; conditions: active = exceeds untreated control by 1.5 times
[4] = system: M. tuberculosis in TB-infected mouse macrophage RAW 264.7 cells; test: Efficacy in TB-infected macrophages, bioluminescence reporter assay; type: cell-based; conditions: for intracellular activity compared to EMB and INH: RAW 264.7, 7 days, day 7 readout; for efficacy in macrophages compared to standard drugs (words): RAW 264.7, treated 6 days, 4 timepoints, five concentrations
M. tuberculosis = conditions: background statement; cited from earlier work
[5] = Mycobacterium tuberculosis, H37RV, Examples 4 and 5 and screening summary, read-out: MIC
[6] = Mycobacterium tuberculosis, H37RV, list of preferred compounds (FIG. 20), read-out: MIC
[7] = Mycobacterium tuberculosis, H37RV, read-out: MIC
[8] = Primates, Vero, cytotoxicity, list of preferred compounds (FIG. 20), read-out: IC50
[9] = list of preferred compounds (FIG. 20)
[10] = cytotoxicity, list of preferred compounds (FIG. 20), read-out: IC50

| SMILES | MIC (H37Rv strain of Mtb; [5]) [µM] | SI (selectivity index, ratio of IC50:MIC) (Vero monkey kidney cells) | MIC (H37Rv strain of Mtb; [6]) [µM] | IC50 (HepG2 cell line) [µM] | MIC (H37Rv strain of Mtb; [7]) [µM] | IC50 (Vero monkey kidney cells; [8]) [µM] | other results |
| --- | --- | --- | --- | --- | --- | --- | --- |
| NNC(=O)c1ccncc1 [INH, Isoniazid, reference compound] | 1 (≈ 0.137 µg/mL) | – | – | – | – | – | prevention of body weight loss and mortality (M. tuberculosis H37Rv [1]): did not show any signs of body loss |
| C=C(C)[C@@H]1CC=C(CN2CCCN(CC3=CC[C@@H](C(=C)C)CC3)CC2)CC1 [SQ781] | – | – | – | – | – | – | MIC (H37Rv strain of Mtb; Examples 4 and 5 and screening summary): high MIC |
| CCOc1ccccc1CN1CCN(c2ccccc2F)CC1 [#766, N-(2-Fluorophenyl)-N′-(2-ethoxybenzyl)piperazine] | – | 6.08 | 12.5 (≈ 3.93 µg/mL) | – | – | – | IC50 (Vero monkey kidney cells; Primates, Vero): 76 µM |
| C1CCCC(N2CCCN(C3CCCCCCC3)CC2)CCC1 [SQ777] | – | – | – | 74 | 7.8 (≈ 2.5 µg/mL) | – | – |
| C1CCC2CC(N3CCCN(C4CCC5CCCCC5C4)CC3)CCC2C1 (stereo not drawn) [SQ778, N,N′-Bis(2-Decalone)homopiperazine] | – | 6.92 | 7.8 (≈ 2.91 µg/mL) | 54 | 7.8 (≈ 2.91 µg/mL) | 54 | – |
| c1ccc(COc2ccc(CN3CCN(Cc4ccccc4)CC3)cc2)cc1 [SQ786, N -benzyl-N′-(4-benzyloxy)benzylpiperazine] | 3.9 (≈ 1.45 µg/mL) | – | – | 54 | 3.13 (≈ 1.17 µg/mL) | – | activity against M. tuberculosis in vivo (M. tuberculosis H37Rv [2]): promising activity against M.tb in vivo; also recorded: efficacious; prevention of body weight loss and mortality (M. tuberculosis H37Rv [1]): prevented body weight loss and delayed mortality; activity in the Luc assay [3]: not active |
| CCOc1ccccc1CN1CCCN(Cc2ccccc2OCC)CC1 [SQ780, N,N′-Bis(2-Ethoxybenzyl)homopiperazine] | 1.56 (≈ 0.575 µg/mL) | 18.21 | 1.56 (≈ 0.575 µg/mL) | 71 | 3.9 (≈ 1.44 µg/mL) | 71 | intracellular activity compared to EMB and INH [4]: equivalent to or better than EMB, but less active than INH; efficacy in macrophages compared to standard drugs (words) [4]: equal or superior to ethambutol; reduction of CFU in spleen (M. tuberculosis H37Rv [2]; 10 mg/kg daily by gavage, 28 days, museum strain of H37Rv): 1 log; activity against M. tuberculosis in vivo (M. tuberculosis H37Rv [2]): efficacious; loss of initial body weight (M. tuberculosis H37Rv [1]): 13%; prevention of body weight loss and mortality (M. tuberculosis H37Rv [1]): low efficacy; also recorded: not active |
| CC1CCCCN1CCCNCc1ccc(C(F)(F)F)cc1 (stereo not drawn) [#712, 1-(N-(4-Trifluorobenzyl)-3-Aminopropyl)pipecoline] | – | – | – | – | – | – | MIC (H37Rv strain of Mtb; [9]): 12.5 µM (≈ 3.93 µg/mL) |
| Fc1ccccc1N1CCN(C2CCC3CCCCC3C2)CC1 (stereo not drawn) [#765, N-(2-Fluorophenyl)-N′-(2-decalone)piperazine] | – | – | – | – | – | – | IC50 (Vero monkey kidney cells; [10]): 70 µM; MIC (H37Rv strain of Mtb): 6.25 µM (≈ 1.98 µg/mL) |
| COc1ccccc1CN1CCCN(Cc2ccccc2OC)CC1 [SQ782] | 6.25 (≈ 2.13 µg/mL) | – | – | 105 | 7.8 (≈ 2.66 µg/mL) | – | intracellular activity compared to EMB and INH [4]: equivalent to or better than EMB, but less active than INH; efficacy in macrophages compared to standard drugs (words) [4]: equal or superior to ethambutol |
| CC[C@@H](CO)NCCN[C@@H](CC)CO [EMB, Ethambutol, reference compound] | 12.5 (≈ 2.55 µg/mL) | – | – | – | – | – | Minimum Inhibition Concentration (MIC) (M. tuberculosis): about 5 μg/ml |
| C1CN(C2C3CC4CC(C3)CC2C4)CCN(C2C3CC4CC(C3)CC2C4)C1 (stereo not drawn) [SQ775, N,N′-Bis(2-Adamantane)homopiperazine] | 6.25 (≈ 2.3 µg/mL) | 16.92 | 7.8 (≈ 2.88 µg/mL) | 132 | 7.8 (≈ 2.88 µg/mL) | 132 | efficacy in macrophages compared to standard drugs (words) ([4]; listed as 775): as effective as isoniazid; efficacy in macrophages compared to standard drugs (words) ([4]; listed as #775): equal or superior to ethambutol; inhibition of bacterial growth ([4]; intracellular, RAW 264.7, day 7, concentration 2×MIC): 99%; activity against M. tuberculosis in vivo (M. tuberculosis H37Rv [2]): promising activity against M.tb in vivo; also recorded: efficacious; loss of initial body weight (M. tuberculosis H37Rv [1]): 4%; prevention of body weight loss and mortality (M. tuberculosis H37Rv [1]): prevented body weight loss and delayed mortality; mortality in the group (M. tuberculosis H37Rv [1]; one week after chemotherapy withdrawn, 6 mice): 50%; loss of initial body weight of mice that remained alive (M. tuberculosis H37Rv [1]; ten days later, after chemotherapy withdrawal, 3 mice): about 20% |
| c1ccc(CN2CCN(C3C4CC5CC(C4)CC3C5)CC2)cc1 (stereo not drawn) [#785, N-Benzyl-N′-2-Adamantylpiperazine] | – | 7.76 | 12.5 (≈ 3.88 µg/mL) | – | – | 97 | – |
| c1ccc(CN2CCN(C3CCC4CCCCC4C3)CC2)cc1 (stereo not drawn) [#787, N-Benzyl-N′-2-Decalonepiperazine] | – | – | – | – | – | – | IC50 (Vero monkey kidney cells; [10]): 70 µM; MIC (H37Rv strain of Mtb; [9]): 12.5 µM (≈ 3.91 µg/mL) |
| CC(C)=CCC/C(C)=C/CNCCCN1CCCCC1C (stereo not drawn) [#711, 1-(N-Geranyl)-3-Aminopropylpipecoline] | – | – | – | – | – | – | MIC (H37Rv strain of Mtb; [9]): 6.25 µM (≈ 1.83 µg/mL) |
| CC1(C)C2CC=C(CN3CCCN(CC4=CCC5CC4C5(C)C)CC3)C1C2 [SQ779] | – | 14.1 | 7.8 (≈ 2.88 µg/mL) | 110 | 7.8 (≈ 2.88 µg/mL) | 110 | – |
